Measured values from patent EP4755396A1, “TREATMENT OF P53 GENE MUTATION OR DEFECT NEGATIVE CANCER AND TUMOR PATIENTS” (Ascentawits Pharmaceuticals, Ltd., priority 2023, dated 2025).
Like-named read-outs stand apart in the source and are kept apart here.

How the values were obtained:
H460 cells [1] = assay: In vitro cell proliferation inhibition under normoxia (96-well, CTG, 72 hours); assay type: cell-based, human; details: Homo sapiens, NCI-H460, H460 cells, 72 hours; for inhibition at 0.25 µM: Nutlin-3 0.25 µM; for inhibition at 0.5 µM: Nutlin-3 0.5 µM; for inhibition at 1 µM: Nutlin-3 1 µM
Protocol: Overview of the experimental process • 1) H460 cell suspension was added to a 96-well plate at 100 µL per well, with a cell density of 2000 /well. • 2) The cells were cultured overnight in an incubator at 37°C, 5% CO2. • 3) Compound Treatment
Monotherapy: After 24 hours of cell plating, each well was supplied with 99.5 µL of growth medium then added with 0.5µL of test compounds at different concentrations, shaken gently to ensure even mixing, and then placed at 37°C, 5% CO2 in an incubator.
(§1) Combination therapy: After 24 hours of cell plating, each well was supplied with 99 µL of growth medium then added with 0.5µL of the combined action compound Nutlin-3, shaken gently to ensure even mixing, and then placed in an incubator for 2 hours. Then each well was added with 0.5µL of test compounds at different concentrations, shaken gently to ensure even mixing, and then placed at 37°C, 5% CO2 in an incubator.
(§2) 4) The cell plate was placed in the incubator for 72 hours.
(§3) 5) The cell plate to be tested was placed at room temperature to equilibrium for 30 minutes, and 100µL of medium was discarded per well.
(§4) 6) 25µL of CTG reagent was added to each well, placed at a fast shaker to shake for 2 minutes, and placed at room temperature away from light for 30 minutes.
7) The chemiluminescence signal value was read using a multifunctional microplate reader with a reading time of 1000 ms.
8) IC50 was calculated with Graph Pad Prism 5 software.
(§5) • 1) H460 and HPAF-II cell suspensions were added to a 96-well plate at 100 µL per well, with a cell density of 2000 /well and 20000/well, respectively. • 2) The cells were cultured overnight in an incubator at 37°C, 5% CO2. • 3) Compound Treatment
(§6) Combination therapy: After 24 hours of cell plating, 99 µL of growth medium was supplied to each well. Each well was added with 0.5 µL of Nutlin-3 or RITA, shaken gently to ensure even mixing, and then placed in an incubator for 2 hours. Then each well was added with 0.5µL of test compounds at different concentrations, shaken gently to ensure even mixing, and then placed at 37°C, 5% CO2 in an incubator.
(§7) Monotherapy: After 24 hours of cell plating, 99.5 µL of growth medium was supplied to each well. Then each well was added with 0.5µL of test compounds at different concentrations, shaken gently to ensure even mixing, and then placed at 37°C, 5% CO2 in an incubator.
(§8) 7) The chemiluminescence signal value was read using a multifunctional microplate reader with a reading time of 1000 ms. The corresponding inhibition rate data were calculated.
• 1) NCI-H460, NCI-H460 P53KO # 1 cell suspensions were added to a 96-well plate at 100 µL per well, with a cell density of 2000 /well. • 2) The cells were cultured overnight in an incubator at 37°C, 5% CO2. • 3) Compound Treatment
as §1, with “plating,” for “plating, each well was supplied with”, “of” for “of growth”, “medium was supplied to each well. Each well was” for “medium then”, “of” for “of the”, “action compound,” for “action compound Nutlin-3,”
8) The ICso (half maximal inhibitory concentration) values were calculated using GraphPad Prism 5 software.

HPAF-II cells = assay: In vitro cell proliferation inhibition (96-well, CTG, 72 hours); assay type: cell-based; details: Homo sapiens, HPAF-II cells, 72 hours; for inhibition at 7.5 µM: Nutlin-3 7.5 µM; for inhibition at 10 µM: Nutlin-3 10 µM; for inhibition at 15 µM: Nutlin-3 15 µM
Protocol: as §5, §6, §7, §2, §3, §4, §8

H460 cells [2] = assay: Cell cycle G2/M arrest, PI staining flow cytometry; assay type: cell-based; details: first experiment, 0.1 nM AST-3424, 5 µM Nutlin-3, 24 hours, combination: AST-3424 first (Figure 5)
Protocol: Overview of the experimental process: • 1) H460/HPAF-II cell suspensions were added to a 24-well plate, with a cell density of 100000 /well and 995 µL of medium per well. • 2) The cells were cultured overnight in an incubator at 37°C, 5% CO2. • 3) Compound Treatment
4) The cells were digested, centrifuged at 1000 g at 4°C, washed once with pre-cooled PBS, centrifuged at 1000 g at 4°C, and fixed with 1 mL of pre-cooled 70% ethanol at -20°C overnight.
5) The cells were centrifuged at 3000g at 4°C, washed once with pre-cooled PBS (phosphate buffer), centrifuged at 3000g at 4°C. Prepare PI staining solution. The cells were stained at 37°C away from light for 30 minutes, and stored in an ice bath away from light. Flow cytometric detection was performed on the same day, and the proportion of cells in different cell cycle phases was analyzed using FlowJo.

`COc1ccc(C2=NC(c3ccc(Cl)cc3)C(c3ccc(Cl)cc3)N2C(=O)N2CCNC(=O)C2)c(OC(C)C)c1` (racemic) [Nutlin-3] gave an inhibition at 0.25 µM (H460 cells [1]; AST 0.5 nM, AST+Nutlin-3 0.5+0.25, read-out: Inhibition rate result, experimental group 1) of 11.8%, an inhibition at 0.5 µM (H460 cells [1]; AST 0.5 nM, AST+Nutlin-3 0.5+0.5, read-out: Inhibition rate result, experimental group 2) of 17.3% and an inhibition at 1 µM (H460 cells [1]; AST 0.5 nM, AST+Nutlin-3 0.5+1, read-out: Inhibition rate result, experimental group 3) of 18.3%. The inhibition at 0.25 µM (H460 cells [1]; AST 1.5 nM, AST+Nutlin-3 1.5+0.25, read-out: Inhibition rate result, experimental group 4) was 11.8%, the inhibition at 0.5 µM (H460 cells [1]; AST 1.5 nM, AST+Nutlin-3 1.5+0.5, read-out: Inhibition rate result, experimental group 5) was 17.3% and the inhibition at 1 µM (H460 cells [1]; AST 1.5 nM, AST+Nutlin-3 1.5+1, read-out: Inhibition rate result, experimental group 6) was 18.3%. It also gave an inhibition at 7.5 µM (HPAF-II cells; AST 20 nM, AST+Nutlin-3 20+7.5, read-out: Inhibition rate result, experimental group 1) of 8.54%, an inhibition at 10 µM (HPAF-II cells; AST 20 nM, AST+Nutlin-3 20+10, read-out: Inhibition rate result, experimental group 2) of 52.5% and an inhibition at 15 µM (HPAF-II cells; AST 20 nM, AST+Nutlin-3 20+15, read-out: Inhibition rate result, experimental group 3) of 73.9%. It also gave an inhibition at 7.5 µM (HPAF-II cells; AST 60 nM, AST+Nutlin-3 60+7.5, read-out: Inhibition rate result, experimental group 4) of 8.54%, an inhibition at 10 µM (HPAF-II cells; AST 60 nM, AST+Nutlin-3 60+10, read-out: Inhibition rate result, experimental group 5) of 52.5% and an inhibition at 15 µM (HPAF-II cells; AST 60 nM, AST+Nutlin-3 60+15, read-out: Inhibition rate result, experimental group 6) of 73.9%. The “cell cycle (G0/G1, S, G2/M phases)” value (H460 cells [2]) was “did not significantly alter the cell cycle”.
